Publication PMC8896928, “Preparation, Characterization, and Preliminary Imaging Study of [^188Re]Re-Ibandronate as a Novel Theranostic Radiopharmaceutical for Bone Metastasis” (Contrast Media & Molecular Imaging, 2022)
“And” between values parts separate entries of the source, which are not always exact repeats. Identical values can stand only once. Like-named read-outs stand apart in the source and are kept apart here.

Details: 37°C
Description: The RCP of [^188Re]Re-IBA was determined by PC. Acetone and 0.9% NaCl were used as the eluents. A TLC scanner was used to measure the distribution of radioactivity on the PC strips. The RCP of [^188Re]Re-IBA was calculated from the peak area measurements as follows: […]
Freshly prepared [^188Re]Re-IBA was incubated in 0.9% NaCl and fresh human serum at 37°C. The RCP of the tubes was determined by PC at 1 h, 3 h, 6 h, 12 h, and 24 h. The experiment was repeated thrice. The results are expressed as mean ± standard deviation ( χ¯ ± s).

In the case of `CCCCCN(C)CCC1(O)P(=O)(O)[O][188Re]2([OH])([OH])([O]P1(=O)O)[O]P(=O)(O)C(O)(CCN(C)CCCCC)P(=O)(O)[O]2` (stereo not shown) [[^188Re]Re-IBA], the “RCP, in vitro stability” value (0.9% NaCl, 1 h) is reported as 98.14 ± 0.2%, the “RCP, in vitro stability” value (0.9% NaCl, 3 h) is reported as 97.82 ± 0.6% and the “RCP, in vitro stability” value (0.9% NaCl, 6 h) is reported as 96.99 ± 1.3%. For the same molecule, the “RCP, in vitro stability” value (0.9% NaCl, 12 h) was 95.33 ± 1.1%, the “RCP, in vitro stability” value (0.9% NaCl, 24 h) was 91.44% and 91.44 ± 0.8% and the “RCP, in vitro stability” value (human serum, 1 h) was 99.01 ± 0.5%. For the same molecule, the “RCP, in vitro stability” value (human serum, 3 h) was 98.67 ± 0.9%, the “RCP, in vitro stability” value (human serum, 6 h) was 98.15 ± 0.8% and the “RCP, in vitro stability” value (human serum, 12 h) was 96.90 ± 1.4%. The “RCP, in vitro stability” value (human serum, 24 h) was 93.06% and 93.06 ± 1.6%.
